Consider five compounds from patent US9376418B2, “Substituted pyridine spleen tyrosine kinase (SYK) inhibitors” (Merck Sharp & Dohme Corp., priority 2012, dated 2016).

One series relates to PGD2. As to conditions: dosed intranasally, phase I/II study, allergic rhinitis; cited from earlier work.
For series [1] the following is noted: phase II clinical trial, allergic rhinitis; cited from earlier work.
In series [2] the target is T1, recombinant human GST-SYK (Homo sapiens, UniProt P43405).
T1 construct: purchased Carna Biosciences 08-176
The series can be described thus: Homogeneous Time-Resolved Fluorescence (HTRF) assay for the recombinant human Syk enzyme. As to conditions: HTRF assay, recombinant human GST-SYK; IC50 given as class symbols; read-out: rhSYK Activity. The series is classed as biochemical. Summed up:
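Phosphotyrosine product from a biotinylated Syk substrate peptide was detected by HTRF (europium antibody/SA-APC, read after 30 min) following a 45-minute room-temperature reaction at 25 μM ATP, with […] preincubated 10 minutes with inhibitor.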
A general note: TR-FRET usually uses a lanthanide donor and a delayed reading to cut background.

On to `Oc1cccc(Nc2ncc(F)c(Nc3cccc(O)c3)n2)c1` [Example R112], for which, in the series on PGD2, the “change in PGD2” value is “statistically significant decrease” and the clinical safety result was “safe across a range of indicators”. In series [1], the efficacy versus placebo result is given as “lack of efficacy”.
As to `CC(=O)NCCNc1ccc(-c2cc(C)cc(Nc3nccc(C(F)(F)F)n3)c2)cn1` [Example 7.37, N-(2-{[5-(3-methyl-5-{[4-(trifluoromethyl)pyrimidin-2-yl]amino}phenyl)pyridin-2-yl]amino}ethyl)acetamide], in series [2], the IC50 is less than 100 nM.
`Cc1cc(Nc2nccc(C(C)(F)F)n2)cc(-c2cccnc2)c1` [Example 20.1, 4-(1,1-Difluoroethyl)-N-[3-methyl-5-(pyridin-3-yl)phenyl]pyrimidin-2-amine]: the IC50 in series [2] was less than 100 nM.
Still for that read-out and setting: the same measure for `COC(=O)Cn1cc(-c2ccc(-c3cc(C)cc(Nc4nccc(C(F)(F)F)n4)c3)cn2)nn1` [Example 25.1, Methyl {4-[5-(3-methyl-5-{[4-(trifluoromethyl)pyrimidin-2-yl]amino}phenyl)pyridin-2-yl]-1H-1,2,3-triazol-1-yl}acetate]: 100 to 1000 nM.
Same read-out and setting: under `CC(=O)NCCN(C)c1ccc(-c2cc(C)cc(Nc3nccc(C(F)(F)F)n3)c2)cn1` [Example 7.50, N-(2-{methyl[5-(3-methyl-5-{[4-(trifluoromethyl)pyrimidin-2-yl]amino}phenyl)pyridin-2-yl]amino}ethyl)acetamide] stands less than 100 nM.
